Laboratory results published in US11608323B2 (SYNGENTA LIMITED, priority 2013, dated 2023).

Assays:
Assay type in all cases: in vivo
ALOMY [1] = assay: Post-emergence herbicidal activity, glasshouse pot test; settings: Alopecurus myosuroides; application post-emergence; rate 1000 g/Ha; evaluated after 13 days; further: key: 5=total damage to plant; 0=no damage to plant
Summary of the method: (§1)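 Seeds were sown in standard soil and cultivated for 8 days under controlled glasshouse conditions. Seedlings were then sprayed with an aqueous solution of the formulated compound containing 0.5% Tween 20. Injury was rated after a further 13 days, where 5 indicated total damage.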

AMARE [2] = assay: as above; settings: Amaranthus retroflexus; application post-emergence; rate 1000 g/Ha; evaluated after 13 days
Summary of the method: as §1

ECHCG [3] = assay: as above; settings: Echinochloa crus-galli; application post-emergence; rate 1000 g/Ha; evaluated after 13 days
Summary of the method: as §1

SETFA [4] = assay: as above; settings: Setaria faberi; application post-emergence; rate 1000 g/Ha; evaluated after 13 days
Summary of the method: as §1

ABUTH [5] = assay: as above; settings: Abutilon theophrasti; application post-emergence; rate 1000 g/Ha; evaluated after 13 days
Summary of the method: as §1

ZEAMX [6] = assay: as above; settings: Zea mays; application post-emergence; rate 1000 g/Ha; evaluated after 13 days
Summary of the method: as §1

ALOMY [7] = assay: Pre-emergence herbicidal activity, glasshouse pot test; settings: rate 1000 g/Ha, evaluated after 13 days, scale 0-5
Summary of the method: (§2)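 Seeds sown in standard soil in pots, sprayed one day later (pre-emergence) with aqueous solution from acetone/water (50:50) formulation with 0.5% Tween 20. Glasshouse at 24/16 °C day/night, 14 h light, 65% humidity, watered twice daily. Damage scored after 13 days, 0 (none) to 5 (total).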

AMARE [8] = assay: as above; settings: rate 1000 g/Ha, evaluated after 13 days, scale 0-5
Summary of the method: as §2

ECHCG [9] = assay: as above; settings: rate 1000 g/Ha, evaluated after 13 days, scale 0-5
Summary of the method: as §2

SETFA [10] = assay: as above; settings: rate 1000 g/Ha, evaluated after 13 days, scale 0-5
Summary of the method: as §2

ABUTH [11] = assay: as above; settings: rate 1000 g/Ha, evaluated after 13 days, scale 0-5
Summary of the method: as §2

ZEAMX [12] = assay: as above; settings: rate 1000 g/Ha, evaluated after 13 days, scale 0-5
Summary of the method: as §2
Wherever Post-emergence herbicidal activity ABUTH (damage score 0-5) is given: key: 5=total damage to plant; 0=no damage to plant.
Wherever Post-emergence herbicidal activity AMARE (damage score 0-5) is given: key: 5=total damage to plant; 0=no damage to plant.
Wherever Post-emergence herbicidal activity ECHCG (damage score 0-5) is given: key: 5=total damage to plant; 0=no damage to plant.
Wherever Post-emergence herbicidal activity SETFA (damage score 0-5) is given: key: 5=total damage to plant; 0=no damage to plant.

SMILES | Post-emergence herbicidal activity ALOMY (damage score 0-5) (ALOMY [1]) | Post-emergence herbicidal activity AMARE (damage score 0-5) (AMARE [2]) | Post-emergence herbicidal activity ECHCG (damage score 0-5) (ECHCG [3]) | Post-emergence herbicidal activity SETFA (damage score 0-5) (SETFA [4]) | Post-emergence herbicidal activity ABUTH (damage score 0-5) (ABUTH [5]) | Post-emergence herbicidal activity ZEAMX (damage score 0-5) (ZEAMX [6]) | ALOMY damage score, application pre-emergence (ALOMY [7]) | AMARE damage score, application pre-emergence (AMARE [8]) | ECHCG damage score, application pre-emergence (ECHCG [9]) | SETFA damage score, application pre-emergence (SETFA [10]) | ABUTH damage score, application pre-emergence (ABUTH [11]) | ZEAMX damage score, application pre-emergence (ZEAMX [12])
CC1C(O)N(c2cc(C(F)(F)F)c(Cl)cn2)C(=O)N1C (stereo not drawn) [Compound A49] | 5 | 5 | 5 | 5 | 5 | 4 | 4 | 5 | 4 | 4 | 5 | 3
CON1C(=O)N(c2cc(C(F)(F)F)c(Cl)cn2)C(O)C1C (stereo not drawn) [Compound A50] | 5 | 5 | 5 | 5 | 5 | 5 | 4 | 5 | 5 | 4 | 5 | 2
CCOC1C(O)N(c2cc(C(F)(F)F)c(C)cn2)C(=O)N1C (stereo not drawn) [Compound A52] | 5 | 5 | 5 | 5 | 5 | 5 | 4 | 5 | 5 | 4 | 5 | 2
CCOC1C(O)N(c2cc(C(F)(F)F)c(Cl)cn2)C(=O)N1C (stereo not drawn) [Compound A53] | 5 | 5 | 5 | 5 | 5 | 3 | 4 | 5 | 4 | 4 | 5 | 2
CCOC1C(O)N(c2cc(C(C)(F)F)ccn2)C(=O)N1C (stereo not drawn) [Compound A59] | 5 | 5 | 5 | 5 | 5 | 4 | 4 | 5 | 3 | 3 | 5 | 1
CC1C(O)N(c2cc(C(C)(F)F)ccn2)C(=O)N1C (stereo not drawn) [Compound A60] | 4 | 5 | 4 | 3 | 5 | 3 | 1 | 5 | 1 | 1 | 5 | 0
CCOC1C(O)N(c2cc(C(C)(C)F)ccn2)C(=O)N1C (stereo not drawn) [Compound A61] | 5 | 5 | 5 | 5 | 5 | 3 | 4 | 5 | 4 | 1 | 5 | 1
CCOC1C(OC(C)=O)N(c2cc(C(F)(F)F)ccn2)C(=O)N1C (stereo not drawn) [Compound A96] | 5 | 5 | 5 | 5 | 5 | 3 | 4 | 5 | 4 | 4 | 5 | 1
CCOC1C(OC(=O)[C@@H](OC(C)=O)c2ccccc2)N(c2cc(C(F)(F)F)ccn2)C(=O)N1C (stereo partly drawn) [Compound A97] | 5 | 5 | 5 | 5 | 5 | 3 | 4 | 5 | 4 | 4 | 5 | 3
CCOC1C(OC(=O)[C@@H]2[C@@H](C=C(Cl)Cl)C2(C)C)N(c2cc(C(F)(F)F)ccn2)C(=O)N1C (stereo partly drawn) [Compound A98] | 0 | 4 | 0 | 0 | 0 | 1 | 0 | 0 | 0 | 0 | 0 | 0
CCOC1C(OC(=O)[C@@H](C)c2ccc(CC(C)C)cc2)N(c2cc(C(F)(F)F)ccn2)C(=O)N1C (stereo partly drawn) [Compound A99] | 0 | 5 | 3 | 0 | 1 | 1 | 0 | 5 | 0 | 0 | 1 | 0
CCOC1C(OC(=O)[C@@H]2CCCO2)N(c2cc(C(F)(F)F)ccn2)C(=O)N1C (stereo partly drawn) [Compound A100] | 5 | 5 | 5 | 5 | 5 | 4 | 4 | 5 | 3 | 3 | 5 | 1
CCO[C@@H]1[C@@H](OC(=O)C(C)Cl)N(c2cc(C(F)(F)F)ccn2)C(=O)N1C (stereo partly drawn) [Compound A101] | 5 | 5 | 5 | 5 | 5 | 3 | 4 | 5 | 4 | 4 | 5 | 0
